What was measured:
[1] = cited from earlier work
[2] = test system: rabbit aortic ring (smooth muscle); experiment: Relaxation of rabbit aortic ring (Example II, tension tracings FIGS. 1-10); assay type: cell-based
Description: The ability of various C-nitroso compounds as described below to relax a rabbit aortic ring (smooth muscle) was carried out as described in Stamler, J., et al., PNAS, Vol. 89, 444-448 (1992).
Results shown in FIGS. 1-10 which are tracings of force (tension) in the Y-direction versus time in the X-direction with downward direction indicating relaxation and upward direction indicating constriction. Concentrations of C-nitroso compound applied at time in the X-direction are indicated as 10^−9 (1 nanomolar), 10^−6 (1 micromolar), 10^−3 (1 milimolar), etc. “PE” on the figures means the application of phenylephrine, a constricting agent.

[3] = Water solubility (dissolves in water at least to 1 micromolar); assay type: physicochemical; conditions: water-soluble = dissolves in water at least to 1 micromolar
Text: As used herein, the term “water-soluble” means dissolves in water at least to provide a concentration of 1 micromolar.

person with angina = experiment: Example IV: patient case, angina with nitrate tolerance; assay type: in vivo, human
[4] = test system: person with arthritis, esophageal spasm, coronary artery disease, congestive heart failure, impotence and nightly urinary incontinence; experiment: Example III: patient case, ibuprofen partly given as nitrosoketoibuprofen; assay type: in vivo, human
[5] = compound alone, at micromolar concentration(s)

Question: With `CC(C)C(=O)c1ccc(C(C)C(=O)O)cc1` (centres unmarked) [2-(4′-isobutyrylphenyl)propionic acid] as the molecule, how does the “carbon acid pKa” value ([1]; of the named substance itself) read?
Answer: Its value is “about 20”.

Question: Which “relaxation activity (in words)” value ([2]; compound alone, at any of the concentrations used, FIG. 10) does the source give for `CC(C)(C)N=O` [2-methyl-2-nitrosopropane] here?
Answer: The value was “no relaxation effect activity”.

Question: And the “water solubility (in words)” value [3]?
Answer: The value was “not water soluble”.

Question: Which “water solubility (in words)” value [3] does the source give for `CCC(N=O)(C(C)=O)C(C)=O` [3-ethyl-3-nitroso-2,4-pentanedione] here?
Answer: The value was “do not meet the definition of water solubility”.

Question: Which results are given for `CC(=O)C(C)(N=O)C(C)=O` [3-methyl-3-nitroso-2,4-petanedione, 3-methyl-3-nitroso-2,4-pentanedione]?
Answer: concentration at which relaxation effect is displayed ([2]; compound alone): greater than 10 micromolar; concentration at which further relaxation effect is displayed ([2]; compound alone, FIG. 9): greater than 100 micromolar; water solubility (in words) [3]: not water soluble; water solubility (in words) ([3]; listed as 3-methyl-3-nitroso-2,4-pentanedione): do not meet the definition of water solubility; pKa of the carbon acid from which the C-nitroso compound is obtained ([1]; pKa of the parent carbon acid, not of the C-nitroso compound): less than 10

Question: With `O=Nc1ccccc1` [C-nitrosobenzene] as the molecule, how does the “relaxation activity (in words)” value [2, 5] read?
Answer: The value was “no activity”.

Question: Which “concentration at which relaxation effect is shown” value ([2]; compound alone, FIG. 1) does the source give for `CC(C)(N=O)C(=O)CCC(=O)Oc1ccccc1C(=O)O` [Compound (129a)] here?
Answer: The value was 10 µM.

Question: Which outcome of angina (person with angina; 20 μg/min continuously, after nitroglycerin stopped) does the source give for `CC(=O)C1(C)CCC2CCCC[C@@H]2ON1O` (some centres unmarked) [Compound (135a)] here?
Answer: Its outcome of angina is “relief of angina”.

Question: For `CC(C)Cc1ccc(C(C)C(=O)O)cc1` (centres unmarked) [ibuprofen], which adverse effect ([4]; ibuprofen 400 mg, three times a day) is on record?
Answer: Its adverse effect is “gastrointestinal upset”.

Question: Which tolerance development (person with angina; angina treated with nitroglycerin) does the source give for `O=[N+]([O-])OCC(CO[N+](=O)[O-])O[N+](=O)[O-]` [nitroglycerin] here?
Answer: The tolerance development was “nitrate tolerance”.

Question: For `CC(C(=O)O)c1ccc(C(=O)C(C)(C)[N+]([O-])=[N+]([O-])C(C)(C)C(=O)c2ccc(C(C)C(=O)O)cc2)cc1` (stereo not drawn) [nitrosoketoibuprofen, dimeric 2-[4′-(α-nitroso)isobutyrylphenyl]propionic acid], which “concentration at which relaxation effect is displayed” value ([2]; compound alone, FIGS. 5 and 6) is on record?
Answer: The value was 10 nM.

Question: What about the “relaxation activity (in words)” value ([2]; compound alone, at concentration higher than 10 nanomolar, FIG. 6) of the same molecule?
Answer: Its value is “not much more activity”.

Question: And the “relaxation activity (in words)” value ([2]; in conjunction with 100 μM glutathione, FIG. 7)?
Answer: Its value is “no activity”.

Question: And the “activity (in words)” value ([2]; without glutathione, at nanomolar concentrations)?
Answer: The value was “therapeutically active”.

Question: And the outcome of symptoms ([4]; ibuprofen 400 mg three times a day with 0.1% by weight of the drug as the dimeric nitrosoketoibuprofen)?
Answer: The outcome of symptoms was “all symptoms are relieved”.

Question: With C-nitrosophenol as the molecule, how does the “relaxation activity (in words)” value [2, 5] read?
Answer: The value was “no activity”.

Source: patent US7259250B2, “C-nitroso compounds and use thereof” (Duke University, priority 2000, dated 2007)
